Here are results for 3 compounds from patent publication US12582605B2, “Extended release formulations of cannabinoids” (Glatt GmbH, priority 2018, dated 2026).

For series [1] the following is noted: oral administration; cited from earlier work.
For series [2] the following is noted: pH values ranging from 1.2 to 7.0; cited from earlier work.
A short description of series [3]: Dissolution test, release of probucol (USP Type II paddle, purified water). The following applies: after / through 24 hours. It is filed as physicochemical. On the procedure:
A dissolution test was conducted on the compositions using purified water, USP, as the dissolution medium in a dissolution volume of 900 ml. A USP Type II paddle apparatus was used to mix the dissolution medium at a paddle speed of 75 rpm. The bath temperature was 37° C., and a 10-μm porous filter was used to sample aliquots.
A dissolution test was conducted on Example Compositions D-H using purified water, USP, as the dissolution medium in a dissolution volume of 900 ml. A USP Type II paddle apparatus was used to mix the dissolution medium at a paddle speed of 75 rpm. The bath temperature was 37° C., and a 10-μm porous filter was used to sample aliquots.

For the compound `CCCCCc1cc(O)c2c(c1)OC(C)(C)[C@@H]1CCC(C)=C[C@@H]21` [THC, Δ9-tetrahydrocannabinol], in series [1], the duration of action is 2 to 4 h and the “duration of psychoactive action” value is 4 to 6 h.
For `CCCCCCC(C)(C)c1cc(O)c2c(c1)OC(C)(C)C1CCC(=O)CC21` (stereo not shown) [nabilone], in series [2], the “solubility in aqueous media” value is “less than 0.5 mg/L”.
Tween® 80: in series [3], the “drug release (probucol)” value is 88 % w/w.
